Patent publication US20250084091A1, “INHIBITORS OF SARS-COV-2” (The Texas A&M University System, priority 2021, published 2025)
Converted amounts (≈) assume the structure as drawn. Like-named read-outs stand apart in the source and are kept apart here.

Legend:
[1] = Uninfected host cell cytotoxicity counter screen; assay type: cell-based; conditions: human
How it was run: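 HeLa-ACE2 cells, uninfected, seeded at 400 cells/well with compounds and held 24 hours at 37° C., 5% CO2. Dead cells stained with Image-iT DEAD green, fixed in 4% paraformaldehyde, DAPI-counterstained and imaged. Data normalized to DMSO and 40 μM puromycin controls; concentration responses in triplicate.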

CoV-2 in Vero cells = assay: CoV-2 Vero antiviral assay; assay type: cell-based, SARS-CoV-2; conditions: Severe acute respiratory syndrome coronavirus 2, Vero, read-out: CoV-2 Vero EC50/100
[2] = target: SARS-CoV-2 main protease (Mpro) (Severe acute respiratory syndrome coronavirus 2, UniProt P0DTD1); assay: biochemical
[3] = tested on: SARS-CoV-2 (strain USA-WA1/2020); assay: microbe, parasite or virus in culture; assay type: cell-based
HeLa-ACE2 cells = assay: cells; assay type: cell-based; conditions: Table 2, total cell count in infected plates
[4] = Severe acute respiratory syndrome coronavirus 2, Table 2, SARS-CoV-2 infected HeLa-ACE2 cells, read-out: CoV-2 HeLa EC50
[5] = Table 2, uninfected cells, 24 hours, read-out: Uninfected HeLa-ACE2 CC50
[6] = Severe acute respiratory syndrome coronavirus 2, HeLa-ACE2, read-out: CoV-2 HeLa EC50, Table 2, SARS-CoV-2 infected HeLa-ACE2 cells

Compound | CC50 at 24 h [1] | EC50 (CoV-2 in Vero cells) | IC50 ([2]; Table 2, read-out: Enzyme IC50) | EC50 [3, 4] | EC50 (HeLa-ACE2 cells) | CC50 at 24 h [1, 5] | IC50 ([2]; Enzyme IC50, Table 2) | EC50 [3, 6] | IC50 ([2]; Enzyme IC50, Table 3, select example compounds against mpro) | EC50 ([3]; Severe acute respiratory syndrome coronavirus 2, HeLa, read-out: CoV-2 HeLa EC50, Table 3)
Cc1cncc(C(=O)N2CCN(C(c3ccccc3)c3cccnc3)CC2)c1 (stereo not drawn) [MKP-1217, 1-(5-methylpyridine-3-carbonyl)-4-[phenyl(pyridin-3-yl)methyl]piperazine] | > 39800 nM | 10 µg/mL (≈ 26.8 µM) | 320 nM | 475 nM | 1310 nM | – | – | – | – | –
O=C(c1cncc(Br)c1)N1CCN(C2c3ccccc3COc3ccccc32)CC1 (stereo not drawn) [NZ-776, (5-bromo-3-pyridyl)-[4-(6,11-dihydrobenzo[c][1]benzoxepin-11-yl)piperazin-1-yl]methanone] | > 39800 nM | 2.5 µg/mL (≈ 5.38 µM) | 140 nM | 480 nM | > 9610 nM | – | – | – | – | –
CC(=O)Nc1cncc(C(=O)N2CCN(C3c4ccccc4CCc4ccccc43)CC2)c1 [ZS-361, N-[5-[4-(2-tricyclo[9.4.0.03,8]pentadeca-1(11),3(8),4,6,12,14-hexaenyl)piperazine-1-carbonyl]-3-pyridyl]acetamide] | 34200 nM | 20 µg/mL (≈ 45.4 µM) | 44 nM | 1180 nM | 4320 nM | – | – | – | – | –
O=C(c1cncc(Br)c1)N1CCN(C2c3ccccc3C=Cc3ccccc32)CC1 [NZ-773, (5-bromo-3-pyridyl)-[4-(2-tricyclo[9.4.0.03,8]pentadeca-1(11),3(8),4,6,9,12,14-heptaenyl)piperazin-1-yl]methanone] | > 39800 nM | 20 µg/mL (≈ 43.4 µM) | 100 nM | 700 nM | > 9610 nM | – | – | – | – | –
Cc1cncc(C(=O)N2CCN(C3c4ccccc4CCc4ccccc43)CC2)c1 [ZS-329, (5-methyl-3-pyridyl)-[4-(2-tricyclo[9.4.0.03,8]pentadeca-1(11),3(8),4,6,12,14-hexaenyl)piperazin-1-yl]methanone] | 21300 nM | 5 µg/mL (≈ 12.6 µM) | 89 nM | 330 nM | > 9610 nM | – | – | – | – | –
Cc1cncc(C(=O)N2CCC(=C3c4ccccc4CCc4ccccc43)CC2)c1 [ZS-336, (5-methyl-3-pyridyl)-[4-(2-tricyclo[9.4.0.03,8]pentadeca-1(11),3(8),4,6,12,14-hexaenylidene)-1-piperidyl]methanone] | 31500 nM | 2.5 µg/mL (≈ 6.34 µM) | 54 nM | 252 nM | 314 nM | – | – | – | – | –
Cc1cncc(C(=O)N2CCN(C(c3ccccc3)c3ccccc3)CC2)c1 [AA-596, (4-benzhydrylpiperazin-1-yl)(5-methylpyridin-3-yl)methanone] | > 39800 nM | 2.5 µg/mL (≈ 6.73 µM) | 130 nM | 360 nM | > 9610 nM | – | – | – | – | –
O=C(c1cncc(Br)c1)N1CCN(C2c3ccccc3CSc3ccccc32)CC1 (stereo not drawn) [NZ-774, (5-bromo-3-pyridyl)-[4-(6,11-dihydrobenzo[c][1]benzothiepin-11-yl)piperazin-1-yl]methanone] | > 39800 nM | 5 µg/mL (≈ 10.4 µM) | 130 nM | 630 nM | > 9610 nM | – | – | – | – | –
Cc1cncc(C(=O)N2CCC(=C3c4ccccc4C=Cc4ccccc43)CC2)c1 [NZ-793, (5-methyl-3-pyridyl)-[4-(2-tricyclo[9.4.0.03,8]pentadeca-1(11),3(8),4,6,9,12,14-heptaenylidene)-1-piperidyl]methanone] | 33100 nM | 5 µg/mL (≈ 12.7 µM) | 120 nM | 527 nM | 520 nM | – | – | – | – | –
Cc1cncc(C(=O)N2CCN(C3c4ccccc4NC(=O)c4ccccc43)CC2)c1 (stereo not drawn) [ZS-355, 11-[4-(5-methylpyridine-3-carbonyl)piperazin-1-yl]-5,11-dihydrobenzo[c][1]benzazepin-6-one] | > 39800 nM | 20 µg/mL (≈ 48.5 µM) | 53 nM | 223 nM | 377 nM | – | – | – | – | –
O=C(c1cncc(Br)c1)N1CCN(C(c2ccccc2)c2ccccc2)CC1 [AA-551, (4-benzhydrylpiperazin-1-yl)(5-bromopyridin-3-yl)methanone] | > 39800 nM | 2.5 µg/mL (≈ 5.73 µM) | 220 nM | 820 nM | > 9610 nM | – | – | – | – | –
O=C(c1cncc(Br)c1)N1CCN(C2c3ccccc3CCc3ccccc32)CC1 [ZS-316, (5-bromo-3-pyridyl)-[4-(2-tricyclo[9.4.0.03,8]pentadeca-1(11),3(8),4,6,12,14-hexaenyl)piperazin-1-yl]methanone] | > 39800 nM | 2.5 µg/mL (≈ 5.41 µM) | 140 nM | 700 nM | > 9610 nM | – | – | – | – | –
Cc1cncc(C(=O)N2CCC(C(c3ccccc3)c3ccccc3)CC2)c1 [NZ-786, 3-[4-(diphenylmethyl)piperidine-1-carbonyl]-5-methylpyridine] | 28500 nM | 10 µg/mL (≈ 27 µM) | 170 nM | 570 nM | > 9610 nM | – | – | – | – | –
Cc1cncc(C(=O)N2CCC(C(O)(c3ccccc3)c3ccccc3)CC2)c1 [NZ-782, [1-(5-methylpyridine-3-carbonyl)piperidin-4-yl]diphenylmethanol] | > 39800 nM | 5 µg/mL (≈ 12.9 µM) | 230 nM | 570 nM | > 9610 nM | – | – | – | – | –
Nc1cncc(C(=O)N2CCN(C3c4ccccc4CCc4ccccc43)CC2)c1 [ZS-342, (5-amino-3-pyridyl)-[4-(2-tricyclo[9.4.0.03,8]pentadeca-1(11),3(8),4,6,12,14-hexaenyl)piperazin-1-yl]methanone] | > 39800 nM | 5 µg/mL (≈ 12.5 µM) | 150 nM | 406 nM | 1180 nM | – | – | – | – | –
O=C(c1cncc(Br)c1)N1CCC(=C(c2ccccc2)c2ccccc2)CC1 [NZ-771, 3-bromo-5-[4-(diphenylmethylidene)piperidine-1-carbonyl]pyridine] | > 39800 nM | 20 µg/mL (≈ 46.2 µM) | 250 nM | 940 nM | > 9610 nM | – | – | – | – | –
Cc1cncc(C(=O)N2CCN(C(c3ccccc3)c3cccc(Cl)c3)CC2)c1 (stereo not drawn) [MKP-1272, 1-[(3-chlorophenyl)(phenyl)methyl]-4-(5-methylpyridine-3-carbonyl)piperazine] | 33600 nM | 10 µg/mL (≈ 24.6 µM) | 365 nM | 246 nM | 117 nM | – | – | – | – | –
Cc1cncc(C(=O)N2CCN(C(c3ccccc3)c3cccc(F)c3)CC2)c1 (stereo not drawn) [MKP-1225, 1-[(3-fluorophenyl)(phenyl)methyl]-4-(5-methylpyridine-3-carbonyl)piperazine] | > 39800 nM | 2.5 µg/mL (≈ 6.42 µM) | 38 nM | 210 nM | 481 nM | – | – | – | – | –
Cc1cncc(C(=O)N2CCC(=C3c4ccccc4CSc4ccccc43)CC2)c1 [NZ-794, [4-(6H-benzo[c][1]benzothiepin-11-ylidene)-1-piperidyl]-(5-methyl-3-pyridyl)methanone] | 39200 nM | 2.5 µg/mL (≈ 6.06 µM) | 60 nM | 155 nM | 345 nM | – | – | – | – | –
Cc1cncc(C(=O)N2CCC(=C(c3ccccc3)c3ccccc3)CC2)c1 [NZ-783, 3-[4-(diphenylmethylidene)piperidine-1-carbonyl]-5-methylpyridine] | 25600 nM | 10 µg/mL (≈ 27.1 µM) | 85 nM | 570 nM | > 9610 nM | – | – | – | – | –
Cc1cncc(C(=O)N2CC3CCC(C2)N3C(c2ccccc2)c2ccccc2)c1 [AA-604, (8-benzhydryl-3,8-diazabicyclo[3.2.1]octan-3-yl)(5-methylpyridin-3-yl)methanone] | – | 5 µg/mL (≈ 12.6 µM) | – | – | > 9610 nM | > 39800 nM | 81 nM | 240 nM | – | –
Cc1cncc(C(=O)N2CCN(C(c3cccc(F)c3)c3cccc(F)c3)CC2)c1 [MKP-1268, 1-[bis(3-fluorophenyl)methyl]-4-(5-methylpyridine-3-carbonyl)piperazine] | > 39800 nM | 2.5 µg/mL (≈ 6.14 µM) | 36 nM | 111 nM | 143 nM | – | – | – | – | –
Cc1cncc(C(=O)N2CC3CCC(C2)N3C(c2cccc(F)c2)c2cccc(F)c2)c1 [AA-625, (8-(bis(3-fluorophenyl)methyl)-3,8-diazabicyclo[3.2.1]octan-3-yl)(5-methylpyridin-3-yl)methanone] | – | – | – | – | 85 nM | 26500 nM | 33 nM | 72 nM | 4 nM | 72 nM
O=C(c1cncnc1)N1CCN(C(c2ccccc2)c2ccccc2)CC1 [AA-577, (4-benzhydrylpiperazin-1-yl)(pyrimidin-5-yl)methanone] | > 39800 nM | – | 8300 nM | 8510 nM | > 9610 nM | – | – | – | – | –
